Data published in US10807932B2, “Benzosuberene analogues and related compounds with activity as anticancer agents” (Baylor University, priority 2018, dated 2020).
Values joined by “and” are separate entries in the source; they are usually repeats but may differ in a detail not shown here. Equal entries are not always repeated.

Tests used:
[1] = biological target: T1, purified bovine brain tubulin (Bos taurus, UniProt P81947+Q6B856); assay: Inhibition of tubulin polymerization (turbidimetric, cell-free); assay type: biochemical; settings: for IC50: 10 μM tubulin, extent of polymerization after 20 min at 30° C., read-out: Inhibition of tubulin polymerization IC50 (μM) ± SD; for inhibition of tubulin polymerization (in words): cell-free assay
T1 construct: purified bovine brain tubulin; from tissue; host or cells: bovine brain
T1 sequence (Q6B856 whole entry): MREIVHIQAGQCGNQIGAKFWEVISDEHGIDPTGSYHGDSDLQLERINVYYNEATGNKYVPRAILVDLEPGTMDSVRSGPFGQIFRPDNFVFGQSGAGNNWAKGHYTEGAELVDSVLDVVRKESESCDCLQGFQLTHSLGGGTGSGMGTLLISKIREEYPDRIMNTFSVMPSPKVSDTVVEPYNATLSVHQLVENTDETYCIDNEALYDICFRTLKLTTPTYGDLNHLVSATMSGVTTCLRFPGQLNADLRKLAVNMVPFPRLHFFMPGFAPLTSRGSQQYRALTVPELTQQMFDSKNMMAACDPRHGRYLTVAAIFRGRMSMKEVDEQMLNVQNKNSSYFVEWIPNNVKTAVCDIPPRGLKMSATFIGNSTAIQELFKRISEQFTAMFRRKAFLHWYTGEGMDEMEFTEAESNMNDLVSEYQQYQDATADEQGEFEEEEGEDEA
T1 sequence (P81947 whole entry): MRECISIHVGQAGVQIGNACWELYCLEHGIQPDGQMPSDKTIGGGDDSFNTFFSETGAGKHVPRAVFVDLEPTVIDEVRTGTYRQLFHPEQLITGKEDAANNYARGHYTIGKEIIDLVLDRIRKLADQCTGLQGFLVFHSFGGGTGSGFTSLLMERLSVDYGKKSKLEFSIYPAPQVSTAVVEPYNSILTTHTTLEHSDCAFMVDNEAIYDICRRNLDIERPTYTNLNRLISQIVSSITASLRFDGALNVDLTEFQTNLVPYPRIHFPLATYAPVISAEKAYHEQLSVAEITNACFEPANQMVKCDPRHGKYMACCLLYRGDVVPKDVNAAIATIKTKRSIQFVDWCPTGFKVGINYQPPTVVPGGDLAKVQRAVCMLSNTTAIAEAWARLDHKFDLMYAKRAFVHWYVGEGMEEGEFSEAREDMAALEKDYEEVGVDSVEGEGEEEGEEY
Method: Inhibition of Tubulin Polymerization.
Tubulin polymerization was evaluated in 0.25 mL reaction mixtures (final volume) containing 1 mg/mL (10 μM) purified bovine brain tubulin, 0.8 M monosodium glutamate (pH 6.6), 4% (v/v) dimethyl sulfoxide, 0.4 mM GTP, and different compound concentrations. All components except GTP were preincubated for 15 min at 30° C. in 0.24 mL. The assay mixtures were cooled to 0° C., and 10 μL of 0.01 M GTP was added to each sample. Reaction mixtures were transferred to cuvettes held at 0° C. in Beckman DU-7400 and DU-7500 spectrophotometers equipped with electronic temperature controllers. The temperature was increased to 30° C., over about 30 s, and polymerization was followed turbidimetrically at 350 nm for 20 min.

[2] = test system: tubulin; assay: Colchicine binding assay (inhibition of [3H]colchicine binding to tubulin); settings: 1.0 μM tubulin, 5.0 μM [3H]colchicine
Method: Colchicine Binding Assay.
Inhibition of [^3H]colchicine binding to tubulin was measured in 0.1 mL reaction mixtures, each containing 1.0 μM tubulin, 5.0 μM [^3H]colchicine (Perkin-Elmer), 5% (v/v) dimethyl sulfoxide, […], and components that stabilize the colchicine binding activity of tubulin (1.0 M monosodium glutamate [adjusted to pH 6.6 with HCl in a 2.0 M stock solution], 0.5 mg/mL bovine serum albumin, 0.1 M glucose-1-phosphate, 1.0 mM MgCl2, and 1.0 mM GTP). […] Reactions were stopped with 2.0 mL of ice-cold water, with the reaction mixtures being placed on ice. Each diluted sample was poured onto a stack of two DEAE-cellulose filters (GE Biomedical), followed by 3 successive 2 mL aliquots of ice-cold water. A reduced vacuum was used to remove excess water from the filters, which were washed three times with 2 mL water and placed into vials containing 5 mL of Biosafe II scintillation cocktail. Samples were counted 18 h later in a Beckman scintillation counter. Samples with inhibitors were compared to samples with no inhibitor, and percent inhibition was determined, correcting all values for the amount of radiolabel bound to the filters in the absence of tubulin.

[3] = test system: SK-OV-3 (ovarian) cancer cell line; assay: Sulforhodamine B (SRB) growth inhibition assay, SK-OV-3; assay type: cell-based, human; settings: 48 h treatment
Description: (§1) Cell Lines and Sulforhodamine B (SRB) Assay.
(§2) The sulforhodamine B (SRB) assay was used to assess growth inhibition of human cancer cells, as previously described. DU-145, SK-OV-3, and NCI-H460 cancer cell lines (obtained from ATCC) were maintained in T75 flasks (Corning) using high glucose DMEM supplemented with 10% fetal bovine serum (Gibco)/1% gentamicin sulfate for a maximum of 15 passages. For these experiments, cells were trypsinized, counted, and plated at 7000-8000 cells/well into 96-well plates (Corning) and incubated for 24 h at 37° C. in a humidified incubator in a 5% CO2 atmosphere. Compounds to be tested were dissolved in DMSO to generate a 10 mg/mL stock solution, and serial dilutions added in media to the plates. Doxorubicin (Sigma-Aldrich) and paclitaxel (Tokyo Chemical) were used as positive controls. After a 48 h treatment, the cells were fixed with trichloroacetic acid (10% final concentration), washed, dried, stained with SRB dye, washed to remove excess dye, and dried. SRB dye was solubilized, and absorbances were measured at wavelength 540 nm and normalized to values at wavelength 630 nm using an automated Biotek plate reader.

[4] = test system: NCI-H460 (lung) cancer cell line; assay: Sulforhodamine B (SRB) growth inhibition assay, NCI-H460; assay type: cell-based, human; settings: 48 h treatment
Description: as §1, §2

[5] = test system: DU-145 (prostate) cancer cell line; assay: Sulforhodamine B (SRB) growth inhibition assay, DU-145; assay type: cell-based, human; settings: 48 h treatment
Description: as §1, §2

| Compound | IC50 [1] | % Inhibition of colchicine binding ± SD ([2]; compound at 5 μM) | GI50 ([3]; Homo sapiens, SK-OV-3) [nM] | GI50 ([4]; Homo sapiens, NCI-H460) [nM] | GI50 ([5]; Homo sapiens, DU-145) [nM] | GI50 [3] [nM] | % Inhibition of colchicine binding ± SD ([2]; compound at 1 μM) | inhibition of tubulin polymerization (in words) [1] | GI50 [4] [nM] | GI50 [5] [nM] |
| --- | --- | --- | --- | --- | --- | --- | --- | --- | --- | --- |
| COc1ccc2c(c1O)CCCC(Br)=C2c1cc(OC)c(OC)c(OC)c1 [Compound 33, 8-Bromo-3-methoxy-9-(3,4,5-trimethoxyphenyl)-6,7-dihydro-5H-benzo[7]annulen-4-ol] | 0.39 ± 0.06 µM | 88 ± 1 (5 μM) % | 22.1 | 35.3 | 36.2 | – | – | – | – | – |
| CCCCc1c(OC)ccc2c1CCCC=C2c1cc(OC)c(OC)c(OC)c1 [Compound 20, 4-Butyl-3-methoxy-9-(30,40,50-trimethoxyphenyl)-6,7-dihydro-5H-benzo[7]annulene] | > 20 µM | – | 11500 | 16100 | 12200 | – | – | – | – | – |
| COc1ccc2c(c1C=O)CCCC=C2c1cc(OC)c(OC)c(OC)c1 [Compound 40, 3-Methoxy-9-(3,4,5-trimethoxyphenyl)-6,7-dihydro-5H-benzo[7]annulene-4-carbaldehyde] | 3.2 ± 0.08 µM | 61 ± 3 (5 μM) % | 57.2 | 84.7 | 40.2 | – | – | – | – | – |
| COc1ccc2c(c1C#N)CCCC=C2c1cc(OC)c(OC)c(OC)c1 [Compound 38, 3-Methoxy-9-(3,4,5-trimethoxyphenyl)-6,7-dihydro-5H-benzo[7]annulene-4-carbonitrile] | 1.1 ± 0.1 µM | 62 ± 0.7 (5 μM) % | – | 434 | 860 | 64.8 | – | – | – | – |
| COc1ccc2c(c1C)CCCC(Br)=C2c1cc(OC)c(OC)c(OC)c1 [Compound 34, 8-Bromo-3-methoxy-4-methyl-9-(3,4,5-trimethoxyphenyl)-6,7-dihydro-5H-benzo[7]annulene] | 4.9 ± 0.1 µM | – | 312 | 449 | 423 | – | 35 ± 5 (1 μM) % | – | – | – |
| COc1cccc2c1C(=O)c1c(O)c3c(c(O)c1C2=O)C[C@@](O)(C(=O)CO)C[C@@H]3O[C@H]1C[C@H](N)[C@H](O)[C@H](C)O1 [Doxorubicin, reference compound] | – | – | 78.9 | 123 | 134 | – | – | – | – | – |
| COc1ccc2c(c1O)CCCC(=O)C2(O)c1cc(OC)c(OC)c(OC)c1 (stereo not shown) [Compound 24, 1,5-Dihydroxy-2-methoxy-5-(3,4,5-trimethoxyphenyl)-5,7,8,9-tetrahydro-6H-benzo[7]annulen-6-one] | 1.2 ± 0.1 µM | 72 ± 2 (5 μM) % | 31.4 | 47.6 | 141 | – | – | – | – | – |
| COc1ccc2c(c1O)CCCCC2(O)c1cc(OC)c(OC)c(OC)c1 (stereo not shown) [Compound 23, 2-Methoxy-5-(3,4,5-trimethoxyphenyl)-6,7,8,9-tetrahydro-5H-benzo[7]annulene-1,5-diol] | > 20 µM | – | 394 | 173 | 33 | – | – | reduced inhibition of tubulin polymerization | – | – |
| COc1ccc2c(c1OC)CCCC1=C2c2cc(OC)c(OC)c(OC)c2C1=O [Compound 93, 3,4,9,10,11-Pentamethoxy-6,7-dihydrodibenzo[a,h]azulen-8(5H)-one] | > 20 µM | – | 3350 | 650 | 3260 | – | – | – | – | – |
| COCCOCCOc1c(OC)ccc2c1CCCC=C2c1cc(OC)c(OC)c(OC)c1 [Compound 28, 3-Methoxy-4-(2-(2-methoxyethoxy)ethoxy)-9-(3,4,5-trimethoxyphenyl)-6,7-dihydro-5H-benzo[7]annulene] | > 20 µM | – | 6520 | 1900 | 5660 | – | – | loss of inhibitory activity | – | – |
| COc1ccc2c(c1CO)CCCC=C2c1cc(OC)c(OC)c(OC)c1 [Compound 48, (3-Methoxy-9-(3,4,5-trimethoxyphenyl)-6,7-dihydro-5H-benzo[7]annulen-4-yl)methanol] | 0.63 ± 0.03 µM | 76 ± 2 (5 μM) % | 40.3 | 62.8 | – | – | – | – | – | – |
| COc1ccc(/C=C\c2cc(OC)c(OC)c(OC)c2)cc1O [CA4, combretastatin A-4, reference compound] | – | – | – | – | – | 4.55 | 84 ± 3% | – | 2.23 | 3.27 |
| CCOC(=O)c1c(OC)ccc2c1CCCC=C2c1cc(OC)c(OC)c(OC)c1 [Compound 47, Ethyl 3-methoxy-9-(3,4,5-trimethoxyphenyl)-6,7-dihydro-5H-benzo[7]annulene-4-carboxylate] | 1 ± 0.07 µM | 47 ± 1 (5 μM) % | 299 | 353 | 631 | – | – | – | – | – |
| COc1cc(C2CCc3c(ccc(OC)c3OC)C(=O)C2)cc(OC)c1OC (stereo not shown) [Compound 77, 1,2-Dimethoxy-7-(3,4,5-trimethoxyphenyl)-6,7,8,9-tetrahydro-5H-benzo[7]annulen-5-one] | > 20 µM | 0 (5 μM) % | 5770 | 2000 | 4450 | – | – | lack of activity | – | – |
| COc1ccc2c(c1O)CCCC=C2c1cc(OC)c(OC)c(OC)c1 [KGP18, 3-Methoxy-9-(3,4,5-trimethoxyphenyl)-6,7-dihydro-5H-benzo[7]annulen-4-ol, reference compound] | ~0.85 µM and 0.85 µM | 95 ± 0.5% | 0.0543 | 0.0418 | 0.0249 | – | 73 ± 5% | – | – | – |
| COc1cc(C2=CC(O)CCc3c2ccc(OC)c3OC)cc(OC)c1OC (stereo not shown) [Compound 57, 3,4-Dimethoxy-9-(3,4,5-trimethoxyphenyl)-6,7-dihydro-5H-benzo[7]annulen-7-ol] | 3.8 ± 0.5 µM | 28 ± 4 (5 μM) % | 263 | 432 | 439 | – | – | reduced inhibition of tubulin polymerization | – | – |
| COc1ccc2c(c1C)CCCC=C2c1cc(OC)c(OC)c(OC)c1 [Compound 9, 1-methy-2-methoxy-5-(3′, 4′, 5′-trimethoxyphenyl)-benzosuber-5-ene] | 1.6 ± 0.2 µM | 65 ± 0.6 (5 μM) % | 330 | 422 | 644 | – | – | – | – | – |
| CC(=O)O[C@H]1C(=O)[C@@]2(C)[C@H]([C@H](OC(=O)c3ccccc3)[C@]3(O)C[C@H](OC(=O)[C@H](O)[C@@H](NC(=O)c4ccccc4)c4ccccc4)C(C)=C1C3(C)C)[C@]1(OC(C)=O)CO[C@@H]1C[C@@H]2O [Paclitaxel, paclitaxel, reference compound] | – | – | 1.34 | 1.76 | 1.47 | – | – | – | – | – |
| COc1ccc2c(c1O)CCC(NC(C)=O)C=C2c1cc(OC)c(OC)c(OC)c1 (stereo not shown) [Compound 69] | – | 0.4 ± 0.6 (5 μM) % | – | 334 | 1200 | – | – | – | – | – |
| COc1cc(C2=CCCCc3c2ccc(OC)c3OCCO)cc(OC)c1OC [Compound 31, 2-((3-Methoxy-9-(3,4,5-trimethoxyphenyl)-6,7-dihydro-5H-benzo[7]annulen-4-yl)oxy)ethan-1-ol] | > 20 µM | – | 3220 | 855 | 3760 | – | – | loss of inhibitory activity | – | – |
| COc1ccc2c(c1C#N)CCC=C2c1cc(OC)c(OC)c(OC)c1 [Compound 39, 2-Methoxy-5-(3,4,5-trimethoxyphenyl)-7,8-dihydronaphthalene-1-carbonitrile] | 0.37 ± 0.08 µM | 73 ± 0.6 (5 μM) % | – | 60.5 | – | 38.4 | – | – | – | – |
